Test results taken from patent US20250281465A1, “MOLECULES THAT ENHANCE EXTRACELLULAR VESICLE RELEASE” (priority 2022, published 2025).
“Also recorded” adds a separate entry of the source.

Key:
THP-1 cells = test: Intracellular Ca2+ influx screening (Fura-2) in THP-1 cells; type: cell-based, human
Experimental: (§1) FIGS. 1A-1D. Intracellular Ca^2+ influx screening of 84 HTS hit candidate compounds. (A) THP-1 cells were loaded with the ratiometric Ca^2+ indicator, Fura-2, and treated with lonomycin (ION, 1 μM), Thapsigargin (1 μM), or 84 hit candidate compounds (10 μM) for 25 minutes. Data are presented as the area under the curve (AUG) of OD340/380 ratios corresponding to the intracellular Ca^2+ kinetics. The baseline-subtracted AUG was calculated using GraphPad Prism (GraphPad Software, San Diego, CA). (B) Ca^2+ mobilization by compound #634. mBMDCs were loaded with the ratiometric Ca^2+ indicator, Fura-8, and treated with ION (1 μM), or #634 (2 and 10 μM) for 25 minutes. The dashed line indicates the timing of compounds added. The data shown are representative of three independent experiments showing similar results. (C) Ca^2+ add-back assay. Fura-8-loaded mBMDC were treated with ION (1 μM), or compound #634 (2 μM, 10 μM) for 15 minutes in the absence of extracellular Ca^2+, and then Ca^2+ (final 1.8 mM) was added at 15 minutes. Data shown are representative of three independent experiments showing similar results. (D) C57BL/6 mice (n=5/group) were intramuscularly immunized with ovalbumin (OVA, 20 μg/mouse) adjuvanted with compound #634 (200 nmol/mouse), or Veh (10% DMSO) on days 0 and 21 and bled on day 28. OVA-specific IgGI and IgG2c levels in sera were determined by ELISA. **p<0.01, ***p<0.001, ns (not significant) by KruskalWallis tests with Dunn's post hoc test vs. Veh.
FIGS. 18A-18C. Compound 634 induces intracellular Ca^2+ levels in mBMDCs. […] The time-response pattern of intracellular Ca^2+ levels was recorded for 25 minutes. AUC of OD340/380 ratios corresponds to the intracellular Ca^2+ kinetics, and the baseline-subtracted AUC was calculated by GraphPad Prism. […]
FIGS. 24A-24B. […] The time-response pattern of intracellular Ca^2+ levels was recorded with a plate reader for 25 minutes. (A) The AUC of OD340/380 ratios corresponds to the intracellular Ca^2+ kinetics and the baseline-subtracted AUC was calculated by GraphPad Prism (FIG. 36). […]

mBMDCs [1] = test: EV release from mBMDCs (differential ultracentrifugation, MRPS); conditions: for number of EV particles released in the culture supernatant: 46-48 h, vs Veh
mBMDC = test: Ca2+ add-back assay in mBMDC; type: cell-based, mouse; conditions: for intracellular Ca^2+ after adding Ca^2+ in the medium: Ca^2+ 1.8 mM added at 15 minutes; for intracellular Ca^2+ level without extracellular Ca^2+: Fura-8-loaded mBMDC, 2 μM, 10 μM, 15 minutes, absence of extracellular Ca^2+
Experimental: as §1
FIGS. 18A-18C. Compound 634 induces intracellular Ca^2+ levels in mBMDCs. (A) Intracellular Ca^2+ influx levels of the top eight compounds. THP-1 cells were loaded with the ratiometric Ca^2+ indicator, Fura-2, and treated with ION (1 μM), TG (1 μM), or test compounds (5 μM). The time-response pattern of intracellular Ca^2+ levels was recorded for 25 minutes. AUC of OD340/380 ratios corresponds to the intracellular Ca^2+ kinetics, and the baseline-subtracted AUC was calculated by GraphPad Prism. […] (B) Ca^2+ mobilization by compounds 456 and 634 in mBMDCs. mBMDCs were loaded with Fura-8 and treated with ION (1 μM), or 634 and 456 (10 μM) for 25 minutes. The dashed line indicates the timing of compounds added. The data shown are representative of three independent experiments showing similar results. (C) Ca^2+ add-back assay. Fura-8-loaded mBMDC were treated with ION (1 μM) or compound 634 (2 μM, 10 μM) for 15 minutes in the absence of extracellular Ca^2+, and then Ca^2+ (final 1.8 mM) was added at 15 minutes. The data shown are representative of three independent experiments showing similar results.

mBMDCs [2] = test: Intracellular Ca2+ influx (Fura-2/Fura-8) in mBMDCs; type: cell-based, mouse; conditions: for intracellular Ca^2+ influx in mBMDCs (Fura-8): 2 and 10 μM, 25 minutes

Row | SMILES | intracellular Ca^2+ (relative AUC of OD340/380) (THP-1 cells; validation assay, 5 μM, vs Veh 0.5% DMSO) | number of EV particles released in the culture supernatant (mBMDCs [1]; 10 μM) | increase of the number of EVs released compared to Veh control (mBMDCs [1]; 634 10 μM, 48 hours, p<0.05) | intracellular Ca^2+ after adding Ca^2+ in the medium (mBMDC) | intracellular Ca^2+ level without extracellular Ca^2+ (mBMDC) | intracellular Ca^2+ influx by 634 and its SAR analogs (Fura-2) (mBMDCs [2]; 10 μM, vs Veh 0.5% DMSO / #634) | intracellular Ca^2+ influx in mBMDCs (Fura-8) (mBMDCs [2]) | intracellular Ca^2+ increase (Fura-2 assay) (THP-1 cells; hit candidate compounds 10 μM, 25 minutes, vs vehicle control (DMSO)) | release of particles of diameter less than 150 nm (mBMDCs [1]; 10 μM) | time intracellular Ca^2+ increase was sustained (mBMDCs [2]; Fura-8 assay)
1 | CCOC(=O)c1c(NS(=O)(=O)c2cccc3nsnc23)sc(C)c1C [compound 634, Ethyl 2-(benzo[c][1,2,5]thiadiazole-4-sulfonamido)-4,5-dimethylthiophene-3-carboxylate] | significantly increased intracellular Ca^2+ | significantly increased the number of EVs released | 45% | intracellular Ca^2+ levels were restored | did not change the intracellular Ca^2+ concentration | Ca^2+ influx positive | induced Ca^2+ influx in mBMDCs; also recorded: comparable to ionomycin | – | – | –
2 | CCOC(=O)c1c(NS(=O)(=O)c2cccc3c2N=S=N3)sc(C)c1C [#634, ethyl 2-(benzo[c][1,2,5]thiadiazole-4-sulfonamido)-4,5-dimethylthiophene-3-carboxylate] | – | increased the number of EV particles released | – | intracellular Ca^2+ influx was restored | did not increase intracellular Ca^2+ levels without extracellular Ca^2+ | – | rapidly increased intracellular Ca^2+ | higher intracellular Ca^2+ increase than vehicle control | significantly enhanced | at least 25 min
